Assay results from patent publication US11517555B2, “Solid soluble ferric pyrophosphate formulations, kits, and methods using the same” (ROCKWELL MEDICAL, INC., priority 2015, dated 2022).
“And” between values parts separate entries of the source, which are not always exact repeats. Identical values can stand only once.

Tests used:
[1] = molecular target: apotransferrin and monoferric transferrin (Homo sapiens, UniProt P02787)
[2] = Text: The angle of repose is related to resistance to movement between particles (interparticulate friction) and is the constant, three-dimensional angle relative to the horizontal base assumed by a cone-shaped pile of powder. In a typical assay, a symmetrical cone-shaped pile of powder is built by passing a solid particulate formulation through a funnel onto a vibration-free fixed base. The height of the funnel is maintained approximately 2 cm to 4 cm above the pile to minimize the effect of falling particles on the top of the pile. The angle of repose can then be determined by measuring the height and radius of the cone and calculating the angle of repose from the following equation: angle of repose=tan^−1(height/radius).
[3] = healthy volunteers, 2.5-10 mg iv over 4 hours, 15 and 20 mg iv over 12 hours
Remark: listed apart in the source
[4] = aqueous solution
[5] = Cilas 1180LD laser diffraction, liquid dispersion in mineral oil, replicates 1-3, citrate

Sequence of apotransferrin and monoferric transferrin (P02787 20-698): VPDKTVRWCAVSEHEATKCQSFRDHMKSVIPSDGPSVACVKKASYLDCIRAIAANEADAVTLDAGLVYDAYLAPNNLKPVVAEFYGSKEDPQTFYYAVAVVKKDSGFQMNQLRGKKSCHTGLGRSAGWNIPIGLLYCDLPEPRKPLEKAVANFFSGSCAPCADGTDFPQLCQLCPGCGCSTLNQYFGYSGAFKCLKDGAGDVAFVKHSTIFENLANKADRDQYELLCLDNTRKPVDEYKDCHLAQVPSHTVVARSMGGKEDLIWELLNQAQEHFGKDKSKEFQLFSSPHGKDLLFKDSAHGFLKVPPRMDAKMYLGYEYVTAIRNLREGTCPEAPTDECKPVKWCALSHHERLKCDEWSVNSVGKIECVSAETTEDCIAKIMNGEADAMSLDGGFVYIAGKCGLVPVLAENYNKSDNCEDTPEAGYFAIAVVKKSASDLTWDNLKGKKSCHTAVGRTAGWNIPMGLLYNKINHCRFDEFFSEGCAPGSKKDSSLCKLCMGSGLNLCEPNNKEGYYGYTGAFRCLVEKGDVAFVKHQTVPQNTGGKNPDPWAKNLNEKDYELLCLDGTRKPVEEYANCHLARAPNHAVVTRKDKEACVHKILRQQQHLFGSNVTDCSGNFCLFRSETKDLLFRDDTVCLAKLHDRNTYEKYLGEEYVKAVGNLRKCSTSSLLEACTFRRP

## O=C([O-])CC(O)(CC(=O)[O-])C(=O)[O-].O=P(O)(O)OP(=O)(O)O.[Fe+3] [SFP, Ferric pyrophosphate citrate]
[1]
  Pharmacologic action: Binds directly to apotransferrin and
[2]; average of 3 replicate measurements
  Angle of Response, Average: 41.5 °
[2]; single replicate measurements 1-3, citrate
  Angle of Response: 42.3 ° and 41.4 ° and 40.9 °
[3]
  AUC of baseline-corrected serum iron: increased in a dose proportional manner
  Cmax of baseline-corrected serum iron: increased in a dose proportional manner
[5]
  D10: 3.57 μm and 3.63 μm and 3.68 μm
  D50: 12.73 μm and 12.66 μm and 12.58 μm
  D90: 41.08 μm and 40.18 μm and 39.23 μm
Light microscopy, dry powder and mineral oil dispersions
  primary particle size: > 5 μm
[4]
  Fe(III)-ligand binding: Covalent and stable in aqueous
